{
  "source": "patent US9573911B2",
  "about": "“Diphosphate mimetics and uses thereof” (President and Fellows of Harvard College, priority 2011, dated 2017)",
  "test_in_all_cases": "Kinase profiling, Invitrogen Z'-LYTE",
  "assay_type_in_all_cases": "biochemical",
  "conditions_in_all_cases": "Table 2",
  "key": {"ABL1": {"biological_target": "T1, ABL1 (Homo sapiens, UniProt P00519)", "T1 construct": "purchased Invitrogen", "experimental": "(§1) Kinase profiling was conducted using Invitrogen Z'-LYTE screening protocol and assay conditions found at www.invitrogen.com. Compound (2) inhibited PLK1 completely at 5 μM."}, "CSK": {"biological_target": "T2, CSK (Homo sapiens, UniProt P41240)", "T2 construct": "purchased Invitrogen", "experimental": "as §1"}, "EEF2K": {"biological_target": "T3, EEF2K (Homo sapiens, UniProt O00418)", "T3 construct": "purchased Invitrogen", "experimental": "as §1"}, "FER": {"biological_target": "T4, FER (Homo sapiens, UniProt P16591)", "T4 construct": "purchased Invitrogen", "experimental": "as §1"}, "GRK4": {"biological_target": "T5, GRK4 (Homo sapiens, UniProt P32298)", "T5 construct": "purchased Invitrogen", "experimental": "as §1"}, "HIPK2": {"biological_target": "T6, HIPK2 (Homo sapiens, UniProt Q9H2X6)", "T6 construct": "purchased Invitrogen", "experimental": "as §1"}, "IKBKE (IKK epsilon)": {"biological_target": "T7, IKBKE (IKK epsilon) (Homo sapiens, UniProt Q14164)", "T7 construct": "purchased Invitrogen", "T7 sequence (Q14164 1-716)": "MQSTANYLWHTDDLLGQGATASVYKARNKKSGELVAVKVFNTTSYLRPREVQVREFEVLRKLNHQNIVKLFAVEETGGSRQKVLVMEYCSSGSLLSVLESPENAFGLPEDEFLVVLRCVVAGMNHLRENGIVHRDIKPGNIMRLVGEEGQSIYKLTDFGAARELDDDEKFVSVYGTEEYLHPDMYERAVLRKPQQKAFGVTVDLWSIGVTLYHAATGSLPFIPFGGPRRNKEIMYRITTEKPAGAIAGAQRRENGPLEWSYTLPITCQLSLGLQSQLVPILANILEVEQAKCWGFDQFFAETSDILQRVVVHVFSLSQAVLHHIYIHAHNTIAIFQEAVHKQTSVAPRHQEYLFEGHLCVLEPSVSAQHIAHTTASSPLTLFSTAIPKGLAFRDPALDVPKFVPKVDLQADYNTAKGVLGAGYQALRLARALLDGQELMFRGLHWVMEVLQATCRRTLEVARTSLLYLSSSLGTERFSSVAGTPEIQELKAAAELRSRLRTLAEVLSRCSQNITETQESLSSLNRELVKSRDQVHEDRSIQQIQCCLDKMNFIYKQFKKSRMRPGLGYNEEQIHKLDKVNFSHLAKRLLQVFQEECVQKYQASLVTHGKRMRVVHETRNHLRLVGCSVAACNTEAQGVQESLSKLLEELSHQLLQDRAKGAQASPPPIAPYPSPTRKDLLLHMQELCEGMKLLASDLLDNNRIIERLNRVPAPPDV", "experimental": "as §1"}, "MAPK12 (p38 gamma)": {"biological_target": "T8, MAPK12 (p38 gamma) (Homo sapiens, UniProt P53778)", "T8 construct": "purchased Invitrogen", "T8 sequence (P53778 1-367)": "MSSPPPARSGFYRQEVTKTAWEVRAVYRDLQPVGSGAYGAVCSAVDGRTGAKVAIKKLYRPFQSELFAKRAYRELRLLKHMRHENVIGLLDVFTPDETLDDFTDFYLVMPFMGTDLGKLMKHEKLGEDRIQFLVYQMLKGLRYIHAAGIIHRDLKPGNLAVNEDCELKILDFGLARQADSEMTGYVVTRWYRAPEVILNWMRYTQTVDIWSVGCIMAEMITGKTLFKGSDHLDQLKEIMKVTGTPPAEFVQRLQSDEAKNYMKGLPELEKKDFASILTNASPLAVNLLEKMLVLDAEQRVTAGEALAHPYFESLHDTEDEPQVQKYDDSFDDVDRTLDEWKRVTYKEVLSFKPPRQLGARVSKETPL", "experimental": "as §1"}, "MET M1250T": {"biological_target": "T9, MET M1250T (Homo sapiens, UniProt P08581, M1250T)", "T9 construct": "purchased Invitrogen", "T9 sequence (P08581 25-1390 M1250T)": "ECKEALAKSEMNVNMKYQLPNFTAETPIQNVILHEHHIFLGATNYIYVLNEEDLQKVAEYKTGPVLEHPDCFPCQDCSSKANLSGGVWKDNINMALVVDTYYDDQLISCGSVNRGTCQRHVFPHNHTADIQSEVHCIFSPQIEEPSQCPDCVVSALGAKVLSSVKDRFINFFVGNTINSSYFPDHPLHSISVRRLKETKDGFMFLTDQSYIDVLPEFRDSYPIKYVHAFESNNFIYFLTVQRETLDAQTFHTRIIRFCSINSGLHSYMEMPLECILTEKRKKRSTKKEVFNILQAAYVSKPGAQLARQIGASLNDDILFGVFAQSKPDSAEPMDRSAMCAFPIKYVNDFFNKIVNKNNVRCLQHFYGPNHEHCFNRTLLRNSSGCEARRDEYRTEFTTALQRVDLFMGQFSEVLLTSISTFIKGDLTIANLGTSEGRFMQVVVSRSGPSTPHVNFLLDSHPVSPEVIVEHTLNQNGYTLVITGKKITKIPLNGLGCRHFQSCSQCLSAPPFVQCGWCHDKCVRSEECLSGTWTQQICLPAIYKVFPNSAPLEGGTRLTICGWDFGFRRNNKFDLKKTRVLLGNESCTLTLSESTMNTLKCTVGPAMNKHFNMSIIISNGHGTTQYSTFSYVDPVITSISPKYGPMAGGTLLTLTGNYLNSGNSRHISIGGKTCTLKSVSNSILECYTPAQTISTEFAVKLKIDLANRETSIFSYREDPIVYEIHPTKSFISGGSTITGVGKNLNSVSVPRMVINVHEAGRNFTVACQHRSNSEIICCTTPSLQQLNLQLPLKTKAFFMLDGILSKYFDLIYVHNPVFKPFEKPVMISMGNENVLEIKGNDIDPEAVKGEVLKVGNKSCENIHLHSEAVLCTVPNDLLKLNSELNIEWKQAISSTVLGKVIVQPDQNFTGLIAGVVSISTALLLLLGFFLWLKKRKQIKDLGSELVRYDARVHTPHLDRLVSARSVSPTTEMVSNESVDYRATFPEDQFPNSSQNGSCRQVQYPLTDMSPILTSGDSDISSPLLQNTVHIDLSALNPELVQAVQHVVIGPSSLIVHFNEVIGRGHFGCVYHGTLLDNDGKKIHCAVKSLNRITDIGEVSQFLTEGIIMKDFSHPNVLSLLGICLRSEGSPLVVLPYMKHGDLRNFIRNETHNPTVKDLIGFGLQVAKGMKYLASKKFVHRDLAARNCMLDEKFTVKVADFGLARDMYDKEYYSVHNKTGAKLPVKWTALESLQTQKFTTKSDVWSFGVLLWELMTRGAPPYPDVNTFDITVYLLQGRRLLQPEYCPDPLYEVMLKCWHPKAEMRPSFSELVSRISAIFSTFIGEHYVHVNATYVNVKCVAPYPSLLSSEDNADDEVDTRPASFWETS", "experimental": "as §1"}, "NEK6": {"biological_target": "T10, NEK6 (Homo sapiens, UniProt Q9HC98)", "T10 construct": "purchased Invitrogen", "T10 sequence (Q9HC98 whole entry)": "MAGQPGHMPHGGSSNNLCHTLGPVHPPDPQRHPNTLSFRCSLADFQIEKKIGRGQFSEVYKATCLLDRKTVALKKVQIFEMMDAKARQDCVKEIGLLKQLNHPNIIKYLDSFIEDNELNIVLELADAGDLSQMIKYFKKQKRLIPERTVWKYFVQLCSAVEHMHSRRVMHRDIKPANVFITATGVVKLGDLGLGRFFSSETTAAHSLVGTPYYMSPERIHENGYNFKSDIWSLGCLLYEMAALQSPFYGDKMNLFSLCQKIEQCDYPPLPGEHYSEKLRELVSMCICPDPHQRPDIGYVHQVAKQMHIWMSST", "experimental": "as §1"}, "PHKG2": {"biological_target": "T11, PHKG2 (Homo sapiens, UniProt P15735)", "T11 construct": "purchased Invitrogen", "T11 sequence (P15735 1-406)": "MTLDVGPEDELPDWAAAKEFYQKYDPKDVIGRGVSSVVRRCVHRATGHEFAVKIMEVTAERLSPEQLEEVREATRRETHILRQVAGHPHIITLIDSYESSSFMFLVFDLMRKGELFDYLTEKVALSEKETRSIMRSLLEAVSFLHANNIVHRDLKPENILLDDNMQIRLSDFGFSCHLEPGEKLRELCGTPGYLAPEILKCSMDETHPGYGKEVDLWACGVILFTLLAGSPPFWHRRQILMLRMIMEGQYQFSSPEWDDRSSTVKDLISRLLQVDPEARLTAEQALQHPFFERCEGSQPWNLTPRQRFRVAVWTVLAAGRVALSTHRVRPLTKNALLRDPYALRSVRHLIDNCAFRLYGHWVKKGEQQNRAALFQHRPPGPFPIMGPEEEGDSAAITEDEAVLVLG", "experimental": "as §1"}},
  "data": [
    {"smiles": "COc1ccc(OC(=O)n2c(=O)oc3cc(C(C)=O)ccc32)cc1", "note": "[Compound 2]", "values": [
      {"measurement": "% Inhibition Point 1", "setting": "ABL1", "result": "−147", "unit": "%"},
      {"measurement": "% Inhibition Point 2", "setting": "ABL1", "result": "−234", "unit": "%"},
      {"measurement": "% Inhibition mean", "setting": "ABL1", "result": "−190", "unit": "%"},
      {"measurement": "% Inhibition Point 1", "setting": "CSK", "result": "−42", "unit": "%"},
      {"measurement": "% Inhibition Point 2", "setting": "CSK", "result": "−60", "unit": "%"},
      {"measurement": "% Inhibition mean", "setting": "CSK", "result": "−51", "unit": "%"},
      {"measurement": "% Inhibition Point 1", "setting": "EEF2K", "result": "−64", "unit": "%"},
      {"measurement": "% Inhibition Point 2", "setting": "EEF2K", "result": "−61", "unit": "%"},
      {"measurement": "% Inhibition mean", "setting": "EEF2K", "result": "−63", "unit": "%"},
      {"measurement": "% Inhibition Point 1", "setting": "FER", "result": "−261", "unit": "%"},
      {"measurement": "% Inhibition Point 2", "setting": "FER", "result": "−240", "unit": "%"},
      {"measurement": "% Inhibition mean", "setting": "FER", "result": "−251", "unit": "%"},
      {"measurement": "% Inhibition Point 1", "setting": "GRK4", "result": 77, "unit": "%"},
      {"measurement": "% Inhibition Point 2", "setting": "GRK4", "result": 76, "unit": "%"},
      {"measurement": "% Inhibition mean", "setting": "GRK4", "result": 76, "unit": "%"},
      {"measurement": "% Inhibition Point 1", "setting": "HIPK2", "result": "−96", "unit": "%"},
      {"measurement": "% Inhibition Point 2", "setting": "HIPK2", "result": "−90", "unit": "%"},
      {"measurement": "% Inhibition mean", "setting": "HIPK2", "result": "−93", "unit": "%"},
      {"measurement": "% Inhibition Point 1", "setting": "IKBKE (IKK epsilon)", "result": 3, "unit": "%"},
      {"measurement": "% Inhibition Point 2", "setting": "IKBKE (IKK epsilon)", "result": 4, "unit": "%"},
      {"measurement": "% Inhibition mean", "setting": "IKBKE (IKK epsilon)", "result": 3, "unit": "%"},
      {"measurement": "% Inhibition Point 1", "setting": "MAPK12 (p38 gamma)", "result": "−203", "unit": "%"},
      {"measurement": "% Inhibition Point 2", "setting": "MAPK12 (p38 gamma)", "result": "−203", "unit": "%"},
      {"measurement": "% Inhibition mean", "setting": "MAPK12 (p38 gamma)", "result": "−203", "unit": "%"},
      {"measurement": "% Inhibition Point 1", "setting": "MET M1250T", "result": "−113", "unit": "%"},
      {"measurement": "% Inhibition Point 2", "setting": "MET M1250T", "result": "−143", "unit": "%"},
      {"measurement": "% Inhibition mean", "setting": "MET M1250T", "result": "−128", "unit": "%"},
      {"measurement": "% Inhibition Point 1", "setting": "NEK6", "result": "−490", "unit": "%"},
      {"measurement": "% Inhibition Point 2", "setting": "NEK6", "result": "−457", "unit": "%"},
      {"measurement": "% Inhibition mean", "setting": "NEK6", "result": "−474", "unit": "%"},
      {"measurement": "% Inhibition Point 1", "setting": "PHKG2", "result": "−360", "unit": "%"},
      {"measurement": "% Inhibition Point 2", "setting": "PHKG2", "result": "−308", "unit": "%"},
      {"measurement": "% Inhibition mean", "setting": "PHKG2", "result": "−334", "unit": "%"}
    ]}
  ]
}
